# Several values for one entry are separate records, joined by “and”; a condition that tells them apart may be missing. Identical values can stand only once.
# Key:
# [1] = test system: E selectin; test: E selectin expression assay on endothelial cells (FACS); type: cell-based, human; details: 10 μg/ml 18 hours prior to stimulation; TNF and IL-1
# Protocol: (§1) E selectin and VCAM-1 assays: HUVEC were plated at 5×10^5 cells per 6 well dish. Cells were treated with DMSO vehicle or De (10 μg/ml final) for 18 hours prior to TNFα (1 ng/ml) addition. After 4 or 18 hours, cells were washed with PBS and incubated with antibodies against E selectin (Mab49-1B11) or VCAM-1 (Nab51-10C9) for 30 min. Goat F(ab′)2 fragment mouse-IgG(H+L)-FITC antibody (Immunotech, Marseille, France) was then added for 30 min. The cells were then trypsinised and FACS analysed on a Coulter Epics® XL-MCL (Beckman Coulter). Results are expressed as arbitrary units relating to the mean intensity of FITC fluorescence.
# [2] = test system: PECAM-1; test: PECAM-1 expression on EC, flow cytometric analysis; type: cell-based; details: after De treatment, data not shown
# [3] = test system: MMP-2; test: Northern blot analysis of MMP-2 mRNA in endothelial cells; type: cell-based, human; details: 10 μg/ml for 18 hours; two experiments; listed as De
# Protocol: Northern blot analysis: HUVEC were plated at 1×10^6 cells per 25 cm^2 flask and grown for 48 hours. Following treatment with DMSO vehicle or De (10 μg/ml final) for 18 hours, total RNA was harvested and purified using TRIZOL reagent (Invitrogen—Life Technologies, Groningen, Netherlands) according to the manufacturer's protocol. Northern blot analysis was performed using 8 μg total RNA transferred onto Hybond-N membranes (Amersham Biosciences, Buckinghamshire, England) and probed with human MMP-2 and GAPDH cDNAs using a Strip-EZ PCR stripAble PCR Probe synthesis and removal Kit (Ambion, Tex., USA).
# [4] = test system: Human umbilical vein endothelial cells (HUVEC); test: Endothelial cell migration (wound) assay; type: cell-based
# Protocol: Migration assay: HUVEC were plated at 5×10^5 cells per gelatin-coated 6 well dish and grown to confluence over 48 hours. Wounds were made in the monolayer, cells washed 3 times and fresh complete media with or without De (10 μg/ml final concentration) added. Migration was viewed over the following 18-72 hours.
# [5] = test system: VCAM-1; test: VCAM-1 expression assay on endothelial cells (FACS); type: cell-based, human; details: 10 μg/ml 18 hours prior to stimulation; TNF and IL-1
# Protocol: as §1
# [6] = test system: breast cancer line MCF7; test: Anti-proliferative effect on MCF7; type: cell-based; details: Homo sapiens
# [7] = test system: Ras transformed NIH 3T3 cells; test: Focus formation assay; type: cell-based; details: 10 μg/ml, 3 weeks
# Protocol: Focus formation assay: Low passage NIH 3T3 cells were transfected with either human ras gene (Ras) or empty vector (Vect) control^19. Two days later the transfected cells were seeded in 6 well plates. After reaching confluence, the cells were cultured in the vehicle DMSO or De (10 μg/ml final) for 3 weeks with media change every 3-4 days (±De). Foci were scored after staining with 0.5% crystal violet. One experiment of two performed is shown.
# [8] = target: T1, human topo II (Homo sapiens, UniProt P11388); test: Topo II-mediated P4 unknotting assay; type: biochemical
# T1 construct: purchased Topogen (Columbus, Ohio)
# Protocol: FIG. 1 represents an unknotting assay for determining the effect of dehydroequol on topo II catalytic activity. Substrate P4 DNA was incubated with two units of purified topo II in the absence (lane 1) or presence of 100, 80, 60, 40, 20, and 10 μg/ml dehydroequol (lanes 3-8). Lane 2, 10 μg/ml VP-16 (positive control). Topo II activity was determined by converting knotted P4 DNA (K) to the unknotted (U) form.
# The stepwise removal of DNA knots (unknotting) requires transient double-strand breakage followed by strand passage and relegation. Type II topoisomerases uniquely catalyse this reaction. […] DNA from a mutant bacteriophage (P4 Virl del1O) is used as a reaction substrate that migrates as a smear (due to the variable number of knots). In the presence of topo II, topological DNA knots are removed, and the reaction product (unknotted DNA) migrates as a single band. Complete inhibition was evident at 100 μg/ml dehydroequol. It was determined from densitometric measurements of the unknotted band that 50% inhibition (IC50) was at about 20 μg/ml dehydroequol.
# To determine topoisomerase (topo) II catalytic activity, knotted DNA that had been isolated from the tailless capsids of the bacteriophage P4 Virl del1O was used as the substrate. Reaction mixtures contained 50 mM Tris-HCl, pH 8.0, 120 mM KCl, 10 mM MgCl2, 0.5 mM ATP, and 0.5 mM dithiothreitol. The topo II inhibitor was added prior to the addition of 2 units of human topo II. Reactions (20 μl final volume) were initiated by adding 0.6 μg of knotted DNA and carried out at 37° C. for 30 min. […] For the quantitative determination of topo II activity, photographic negatives were densitometrically scanned. Unknotted DNA, migrating as a single band at the top of the gel, was measured in this manner. The concentration of the inhibitor preventing 50% of the substrate (knotted DNA) from being converted into the reaction product (unknotted DNA) was determined from a standard curve. By averaging three to four such experiments, the IC50 values were determined.
# [9] = test system: leukaemic cell line HL60; test: Anti-proliferative effect on HL60; type: cell-based; details: Homo sapiens, HL-60
# [10] = test system: IL-8; test: IL-8 secretion from endothelial cells (immunoassay); type: cell-based, human; details: TNF stimulated endothelial cells
# Protocol: IL8 assay: IL-8 assays were performed using a “Quantikine Human IL-8 Immunoassay” (R & D Systems, Minneapolis Minn. USA).
# [11] = test system: K562, HL60, MCF7, HT29, CaCo-2, DU145, PC3 and LNCaP cell lines; test: Cytotoxic potency compared with genistein on the cancer cell line panel; type: cell-based; details: on these cell lines
# T1 sequence (P11388 whole entry): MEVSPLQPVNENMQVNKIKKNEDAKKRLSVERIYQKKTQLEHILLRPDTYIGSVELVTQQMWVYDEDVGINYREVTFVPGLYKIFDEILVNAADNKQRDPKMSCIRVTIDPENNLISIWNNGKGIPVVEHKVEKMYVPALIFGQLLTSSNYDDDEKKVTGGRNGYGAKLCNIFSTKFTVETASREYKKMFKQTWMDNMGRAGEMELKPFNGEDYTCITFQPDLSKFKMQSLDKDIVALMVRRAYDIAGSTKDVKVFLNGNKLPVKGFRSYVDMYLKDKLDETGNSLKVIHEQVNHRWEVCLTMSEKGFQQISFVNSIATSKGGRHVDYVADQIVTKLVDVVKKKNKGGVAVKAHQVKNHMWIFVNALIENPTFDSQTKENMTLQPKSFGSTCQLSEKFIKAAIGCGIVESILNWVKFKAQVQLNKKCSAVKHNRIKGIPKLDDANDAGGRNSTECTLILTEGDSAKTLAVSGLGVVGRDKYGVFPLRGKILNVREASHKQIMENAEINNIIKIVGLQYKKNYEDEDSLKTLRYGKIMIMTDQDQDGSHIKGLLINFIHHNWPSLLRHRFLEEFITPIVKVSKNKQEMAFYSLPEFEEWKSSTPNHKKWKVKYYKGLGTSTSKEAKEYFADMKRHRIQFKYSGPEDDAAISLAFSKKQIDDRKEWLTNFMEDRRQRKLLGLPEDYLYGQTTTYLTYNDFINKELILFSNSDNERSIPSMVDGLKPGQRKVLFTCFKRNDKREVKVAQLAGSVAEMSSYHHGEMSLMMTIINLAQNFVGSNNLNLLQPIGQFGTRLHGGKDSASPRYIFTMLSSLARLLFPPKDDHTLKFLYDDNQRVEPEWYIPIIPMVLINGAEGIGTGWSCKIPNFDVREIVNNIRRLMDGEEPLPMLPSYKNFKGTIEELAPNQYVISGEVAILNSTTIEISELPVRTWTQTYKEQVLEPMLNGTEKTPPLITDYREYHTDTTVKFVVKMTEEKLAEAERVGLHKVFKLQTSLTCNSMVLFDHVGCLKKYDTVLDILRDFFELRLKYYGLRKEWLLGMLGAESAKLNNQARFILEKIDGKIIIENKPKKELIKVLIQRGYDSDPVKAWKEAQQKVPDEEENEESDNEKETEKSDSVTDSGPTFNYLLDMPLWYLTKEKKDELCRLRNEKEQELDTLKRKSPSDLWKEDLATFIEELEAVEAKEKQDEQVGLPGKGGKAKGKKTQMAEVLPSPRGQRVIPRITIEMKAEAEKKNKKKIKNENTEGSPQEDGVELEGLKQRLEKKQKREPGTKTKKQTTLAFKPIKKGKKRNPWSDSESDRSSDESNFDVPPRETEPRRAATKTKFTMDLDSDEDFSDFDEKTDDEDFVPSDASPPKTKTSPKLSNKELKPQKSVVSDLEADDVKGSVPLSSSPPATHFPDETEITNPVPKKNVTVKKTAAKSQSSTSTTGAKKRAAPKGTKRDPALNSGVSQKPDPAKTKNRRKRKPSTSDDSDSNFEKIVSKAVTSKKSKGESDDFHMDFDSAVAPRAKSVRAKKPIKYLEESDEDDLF
compound,measurement,setting,value
"Oc1ccc(C2=Cc3ccc(O)cc3OC2)cc1 [Dehydroequol, 4′,7-dihydroxyisoflav-3-ene]",induction of E selectin on the endothelium,[1],inhibits the induction
same,level of expression of PECAM-1,[2],no changes
same,decrease in level of mRNA for MMP-2,[3],68.3% and 46.7%
same,inhibition of EC migration,[4]; 10 μg/ml,inhibits
same,viability of EC not in the vicinity of the wound,[4]; in the presence of De for 72 hours,remained viable
same,induction of VCAM-1 on the endothelium,[5],inhibits the induction
same,IC50,[6],1.5 µg/mL
same,inhibition of development of colonies (foci),[7],completely inhibited
same,concentration at which complete inhibition of topo II unknotting was evident,[8],100 µg/mL
same,effect on topo II catalytic activity compared with positive control,[8]; VP-16 10 μg/ml as positive control,comparable to that of VP-16
same,IC50,"[8]; densitometric measurements of the unknotted band, read-out: 50% inhibition (IC50) of topo II unknotting (converted)",~83.2 µM
same,IC50,[9],1.5 µg/mL
same,secretion of EL-8,[10],inhibits the secretion
same,potency as a cytotoxic agent relative to genistein,[11],5-20 times

# — patent US20060167083A1, “Therapeutic methods and compositions involving isoflav-3-ene and isoflavan structures” (priority 2002, published 2006)
